These results are taken from patent US7858650B2, “Medicinal composition for inhalation” (Ono Pharmaceutical Co., Ltd., priority 2004, dated 2010).

What all share (format): in vivo
Data set [1] has as its system methacholine-induced airway contractile response. As to the kind of experiment: Effect of intratracheal administration on methacholine-induced airway contractile response. Particulars: guinea pig, methacholine 10 μg/kg i.v. The procedure:
(2) Effect of Compound of the Present Invention by Intratracheal Administration on Methacholine-Induced Airway Contractile Response in Guinea Pig
A test substance was intratracheally administered to a guinea pig anesthetized with GOI (laughing gas:oxygen=3:1, 3% isoflurane) using a tube for intratracheal administration. After a certain period of time, the guinea pig was anesthetized with sodium pentobarbital (50 mg/kg, i.p.) and treated with gallamine (10 mg/kg, i.v.). Then, the resulting airway contractile response was determined under artificial respiration. As an airway contraction inducing substance, methacholine (10 μg/kg, i.v.) was used, and the airway contractile response was determined by the Konzett & Roessler method. A ratio of airway contraction (% of maximum) was calculated by taking the airway response obtained by closing a three-way stopcock attached to an upper part of a cannula inserted into the tracheal tube of the guinea pig as 100%.

For data set [2] the test system is unchanged. As to the kind of experiment: Bronchodilator effect of a sustained prodrug of EP2 agonist (methacholine-induced airway contraction, intratracheal). Particulars: guinea pig, intratracheal administration, methacholine 10 μg/kg i.v., airway contractile response measured for 3 hours; FIGS. 7 and 9. The procedure:
(§1) (3) Bronchodilator Effect and Hypotensive Effect of a Sustained Prodrug of EP2 Agonist
(§2) A guinea pig anesthetized with sodium pentobarbital (50 mg/kg, i.p.) was treated with gallamine (10 mg/kg, i.v.), and an experiment was carried out under artificial respiration. As an airway contraction inducing substance, methacholine (10 μg/kg, i.v.) was used, and the airway contractile response was determined by the Konzett & Roessler method. Compound B was dissolved in an equimolar amount of sodium hydroxide and diluted with a physiological saline solution. Compound F was suspended in a physiological saline solution containing 2% ethanol and 10% Tween 80 to prepare a test substance. The test substance was intratracheally administered using a tube for intratracheal administration. After the administration of the test substance, the blood pressure and the airway contractile response were measured for 12.5 minutes and 3 hours, respectively. A ratio of airway contraction (%) was calculated by taking the airway response obtained by closing a three-way stopcock attached to an upper part of a cannula inserted into the tracheal tube of the guinea pig as 100% contraction. The amount of blood pressure reduction (mmHg) was expressed based on the blood pressure before administration of the test substance.

Data set [3] is described as follows: Hypotensive effect of a sustained prodrug of EP2 agonist (blood pressure after intratracheal administration). Particulars: guinea pig, blood pressure measured for 12.5 minutes after administration, FIGS. 6 and 8. How it is done: as §1, §2
The subject of data set [4] is histamine-induced airway contractile response. As to the kind of experiment: Inhibitory activity on histamine-induced airway contractile response and hypotensive activity, intravenous or inhalation administration. Conditions: anesthetized guinea pig, histamine 10 μg/kg i.v.; inhalation (5 minutes, nebulizer) versus intravenous administration; FIG. 1. The procedure: (1) Inhibitory Activity on Histamine-Induced Airway Contractile Response and Hypotensive Activity of Intravenous Administration or Inhalation Administration in Guinea Pig
A guinea pig anesthetized with sodium pentobarbital (75 mg/kg, i.p.) was treated with gallamine (10 mg/kg, i.v.), and an experiment was carried out under artificial respiration. As an airway contraction inducing substance, histamine (10 μg/kg, i.v.) was used, and the airway contractile response was determined by the Konzett & Roessler method (Konzett, H., Roessler, R. Versuchsanordnung zu untersuchungen ander Bronchial-muskulatur. Arch Exp Pathol Pharmacol 1940; 195:71-74). Additionally, the blood pressure was also measured at the same time. A test substance was administered intravenously or by inhalation (the test substance or a physiological saline solution was atomized using an ultrasonic nebulizer and inhaled directly into the trachea for 5 minutes using an artificial respirator). An inhibition ratio of airway contraction (%) was calculated by taking the airway contraction induced by histamine before administration of the test substance or in a group administered with a physiological saline solution as 0% inhibition. The amount of blood pressure reduction (mmHg) was expressed as the amount of diastolic blood pressure reduction. […] From this, it was shown that the pharmaceutical composition for inhalation of the present invention has an inhibitory effect on airway contraction and its hypotensive effect is small.

Regarding `CCCCOC(=O)c1csc(SCCN2C(=O)CC[C@@H]2COc2cc(Cl)cc(Cl)c2)n1` [Compound E, butyl 2-[(2-{(2R)-2-[(3,5-dichlorophenoxy)methyl]-5-oxopyrrolidin-1-yl}ethyl)thio]-1,3-thiazole-4-carboxylate], the “duration of activity (bronchodilator effect), comparison” value (shortened to “duration of activity”) in data set [1] (FIGS. 2 to 5) is recorded as “more prolonged duration of activity compared with Compound B”.
As for `CCCCCCCCCCCOC(=O)c1csc(SCCN2C(=O)CC[C@@H]2COc2cc(Cl)cc(Cl)c2)n1` [Compound F, undecyl 2-[(2-{(2R)-2-[(3,5-dichlorophenoxy)methyl]-5-oxopyrrolidin-1-yl}ethyl)sulfanyl]-1,3-thiazole-4-carboxylate], the “duration of bronchodilator activity, comparison” value in data set [2] was “prolonged duration of bronchodilator activity compared with Compound B”. For the same compound, the “duration of activity” value in data set [1] (FIGS. 2 to 5) was “more prolonged duration of activity compared with Compound F”. In data set [3], the “change of blood pressure (hypotensive effect)” value is reported as “did not change the blood pressure”.
Turning to `O=C(O)c1csc(SCCN2C(=O)CC[C@@H]2COc2cc(Cl)cc(Cl)c2)n1` [Compound B, 2-[(2-{(2R)-2-[(3,5-dichlorophenoxy)methyl]-5-oxopyrrolidin-1-yl}ethyl)thio]-1,3-thiazole-4-carboxylic acid], in data set [1] (FIG. 2), the “time after administration at which the bronchodilator effect was lost” value is given as “around 3 hours”. Further, the bronchodilator effect entry in data set [1] (FIGS. 2 to 5) is on record as “has a bronchodilator effect”. The “dissociation between the inhibitory effect on airway contraction and the hypotensive effect” value in data set [4] was “became larger by inhalation administration than by intravenous administration”.
Turning to `O=C(OCCCCCCCCCCc1ccccc1)c1csc(SCCN2C(=O)CC[C@@H]2COc2cc(Cl)cc(Cl)c2)n1` [Compound G, 10-phenyldecyl 2-[(2-{(2R)-2-[(3,5-dichlorophenoxy)methyl]-5-oxopyrrolidin-1-yl}ethyl)sulfanyl]-1,3-thiazole-4-carboxylate], the “duration of activity” value in data set [1] (FIGS. 2 to 5) was “more prolonged duration of activity compared with Compound F”.
For `CCC1([C@@H](O)C/C=C/[C@H]2CCC(=O)N2CCSc2nc(C(=O)O)cs2)CCC1` [Compound A, 2-[(2-{(2R)-2-[(1E,4S)-4-(1-ethylcyclobutyl)-4-hydroxybut-1-enyl]-5-oxopyrrolidin-1-yl}ethyl)sulfanyl]-1,3-thiazole-4-carboxylic acid], the “dissociation between the inhibitory effect on airway contraction and the hypotensive effect” value in data set [4] is on record as “became larger by inhalation administration than by intravenous administration”.
Consider `O=C(O)c1csc(SCCN2C(=O)CC[C@@H]2COc2cccc(OC(F)(F)F)c2)n1` [Compound D, 2-{[2-((5R)-2-oxo-5-{[3-(trifluoromethoxy)phenoxy]methyl}pyrrolidin-1-yl)ethyl]sulfanyl}-1,3-thiazole-4-carboxylic acid], for which the “dissociation between the inhibitory effect on airway contraction and the hypotensive effect” value in data set [4] is listed as “became larger by inhalation administration than by intravenous administration”.
Same read-out and setting: as for `O=C(O)c1csc(SCCN2C(=O)CC[C@@H]2COc2cccc(C(F)(F)F)c2Cl)n1` [Compound C, 2-{[2-((2R)-2-{[2-chloro-3-(trifluoromethyl)phenoxy]methyl}-5-oxopyrrolidin-1-yl)ethyl]sulfanyl}-1,3-thiazole-4-carboxylic acid], the entry is “became larger by inhalation administration than by intravenous administration”.
